According to EP4360643A1, “SOCS1 DERIVED PEPTIDES FOR USE IN THE TREATMENT OF LIVER DISEASES” (Fundacion Instituto De Investigacion Sanitaria Fundacion …, priority 2022, dated 2024):
Bridges are numbered along the chain shown (N, C = ends). Where no end group is shown, it is not given here. [ ]: non-standard residue; d: D form. The star is where a group is joined. 1Nal = N[C@@H](Cc1cccc2ccccc12)C(=O)O; Acm = CC(=O)NC*

Key:
BKS db/db mice = experiment: T2D-induced liver damage in BKS db/db mice (leptin receptor deficiency); format: in vivo; settings: Losartan alone, 25 µg/g in drinking water, 7 weeks
Procedure: Leptin receptor deficiency in diabetes-susceptible strain BKS db/db: Homozygous C57BLKS (BKS) inbred db/db mice (16-weeks old males; Envigo) were randomized to receive in drinking water an angiotensin receptor blocker (Losartan 25 µg/g body weight) or vehicle as tap water (n=25). In addition, two groups of 8 losartan-treated mice were randomized to receive S1 peptide (10 µg/g body weight) or JAK1/2 inhibitor (Baricitinib 3 µg/g body weight) via intraperitoneal injection 3 days per week for 7 weeks. All groups were monitored during 7 weeks of treatment. Heterozygous littermates (db/m; n=10) were used as non-diabetic, non-obese control group.
Mice were housed in ventilated cages (2-4 mice per cage) with usual bedding material and environmental enrichment in a conventional temperature-controlled room (20-22°C) with 12 h light/dark cycle and free access to water and food. Blood glucose (glucometer; NovaPro, Menarini Diagnostics) and body weight levels were monitored once weekly during the follow-up period. […]
At the end of the studies, serum levels of glucose, triglycerides (TG), total cholesterol, high-density lipoprotein cholesterol (HDL), low-density lipoprotein cholesterol (LDL), alanine aminotransferase (ALT or GPT), aspartate aminotransferase (AST), alkaline phosphatase (ALP) and albumin were determined by automated procedures (Roche Cobas autoanalyzer). […]

[1] = system: mouse hepatocyte cell line; experiment: In vitro NAFLD model: hepatocytes exposed to palmitic acid (Oil red O staining, real-time PCR); format: cell-based; settings: induced by palmitic acid 400 µM, 6 hours
Procedure: Immortalized mouse hepatocyte cell line (kindly provided by Dr. Valverde, IIBm Alberto Sols, Madrid) were cultured in Dulbecco's Modified Eagle Medium (DMEM; D6546, Sigma-Aldrich) containing 10% FBS, 100 U/mL penicillin, 100 µg/mL streptomycin and 2 mM L-glutamine (Sigma-Aldrich) and used between 2nd-8th passages. Cells were incubated for 24 hours in medium with 0.5% FBS, pre-treated for 90 min with optimal doses of peptides (59 µM S1 and 25 µM liPS5) and then stimulated for additional 2-16 h with palmitic acid (P-0500, Sigma-Aldrich; stock solution diluted in fatty acid-free BSA to 5 mM) at a final concentration of 400 µM. Cell viability was confirmed by the 3-(4,5-dimethylthiazol-2-yl)-2,5-diphenyltetrazolium bromide tetrazolium (MTT) assay. Lipid accumulation in hepatocytes was determined by Oil red O staining.
(§1) Total RNA from mouse liver and hepatocytes was extracted using TRI Reagent (Molecular Research Center). Complementary DNA was produced via reverse transcription using High Capacity cDNA Reverse Transcription Kit (Applied Biosystems). The gene expression of mouse genes was determined in duplicate by quantitative real-time PCR using predesigned TaqMan gene expression assays (Applied Biosystems) or Premix ExTaq (Takara). The results for each sample were normalized to the 18S rRNA housekeeping expression, and data expressed as fold increases versus chow diet (in vivo studies) or basal conditions (in vitro studies).

[2] = system: ApoE-/- mice fed with HFD; experiment: NAFLD induced by high-fat diet (HFD) in ApoE-/- mice; format: in vivo; settings: 8 weeks of treatment
Procedure: In the second model, apolipoprotein E deficient mice (ApoE-/-, males, 10-12 weeks old) were administered high-fat diet (HFD, TD.88137, Envigo) for 8 weeks and treated with vehicle (n=8) or SOCS1-derived peptides (S1, n=6; liPS5, n=6; cPS5, n=6; cPS5Nal, n=6) at the dose of 4µg/g (in 200 µL) via intraperitoneal injection 3 days per week. A group of ApoE-/- mice under standard diet (Chow, n=6) was included as control.
Mice were housed in ventilated cages (2-4 mice per cage) with usual bedding material and environmental enrichment in a conventional temperature-controlled room (20-22°C) with 12 h light/dark cycle and free access to water and food. Blood glucose (glucometer; NovaPro, Menarini Diagnostics) and body weight levels were monitored once weekly during the follow-up period. At the end of the intervention studies, mice were anaesthetized (ketamine 100 mg/kg and xylazine 10 mg/kg) and euthanized, and blood and tissue samples were collected.
Hepatic lipids were extracted as previously described. Commercial colorimetric kits were used to measure concentrations of total cholesterol (STA-384, Cell Biolabs) and TG (11528, Biosystems), and values were normalized by tissue weight and mg of protein (BCA assay), respectively.
At the time of harvest, liver samples were fixed in 10% buffered formalin, processed for paraffin-embedding and cut (3-4 µm) or embedded in OCT compound and cryosectioned into 7 µm slices. Deparaffinized sections were stained with hematoxylin/eosin and Masson's trichrome to evaluate the histological NAFLD activity score (NAS) considering steatosis, lobular inflammation, ballooning and fibrosis, as previously described or were stained with picrosirious red to assess collagen deposition and fibrotic areas. Periodic Acid Schiff staining was performed for glycogen deposition assessment. Cryosections were stained with Oil red O/ hematoxylin to detect lipid accumulation.
For immunohistochemistry, liver sections were deparaffinized and […] through graded xylene and ethanol. After antigen retrieval (0.01 M citrate buffer pH 6 for 20 min) and blockade of endogenous peroxidase (3% H2O2 in methanol for 30 min) and nonspecific binding (8% host serum for 30 min), slides were incubated overnight at 4°C with primary antibodies against phosphorylated STAT1 (P-STAT1, Tyr701; Thermo Fisher Scientific Cat# 44-376G, RRID:AB_2533642), P-STAT3 (Ser727, Cell Signalling Technology Cat# 9134, RRID:AB_331589), P-nuclear factor erythroid 2-related factor 2 (NRF2, Ser40; Abcam Cat# ab76026, RRID:AB_1524049) and F4/80 monocytes/macrophages (Bio-Rad Cat# MCA497R, RRID:AB_323279). After rinsing in PBS, samples were incubated with respective secondary antibodies conjugated with either horseradish peroxidase or biotin (followed by avidin-biotin complex reagent). Immunoreactive cells were then visualized by the addition of peroxidase substrates (3, 3-diaminobenzidine or 3-amino-9-ethylcarbazole; DAKO) and counterstained with hematoxylin.
All the histological evaluations were conducted in a blinded fashion. Positive staining was quantified in at least 2 sections per mice using Image-Pro Plus software (Media Cybernetics) and expressed as percentage or number of positive cells per area.
as §1

[3] = 4µg/g intraperitoneal 3 days per week, vs vehicle

Molecule | hepatoprotective effect (BKS db/db mice) | expression of inflammatory gene CCL2 (real-time PCR) [1] | expression of inflammatory gene IL-6 (real-time PCR) [1] | expression of scavenger receptor CD36 (real-time PCR) [1] | gene expression of CCL5 in mouse liver [2] | gene expression of CCl2 in mouse liver [2] | gene expression of CXCL10 in mouse liver [2] | gene expression of IL-6 in mouse liver [2] | gene expression of TNFα in mouse liver [2] | gene expression of scavenger receptor CD36 in mouse liver [2] | ballooning (liver sections) [2, 3] | hepatic steatosis (liver sections, hematoxylin/eosin, Oil red O) [2, 3] | inflammation (liver sections, F4/80) [2, 3]
CCCCc1nc(Cl)c(CO)n1Cc1ccc(-c2ccccc2-c2nn[nH]n2)cc1 [Losartan] | did not produce an hepatoprotective effect | – | – | – | – | – | – | – | – | – | – | – | –
DTC(Acm)RQT(Nal1)RKH (lactam bridge D1-K9) (DTC(Acm)RQT[1Nal]RKH; lactam 1-9) [cPS5Nal, cyclic PS5 with additional non-natural residue 1-naphthylalanine] | – | downregulated | downregulated | downregulated | effectively prevented | effectively prevented | effectively prevented | effectively prevented | effectively prevented | effectively prevented | marked decrease | marked decrease | marked decrease
